Biological target: recombinant human integrin αvβ6 (Homo sapiens (Human), UniProt P06756+P18564)
Assay: Solid phase integrin αvβ6 binding assay
Settings: plate-coated integrin; recombinant TGFβ1 LAP 0.67 ug/ml as ligand; 2 hours at 25° C.; read-out: αvβ6 Inhibition IC50 (nM) - range
Method: Example B1—Solid Phase Integrin αvβ6 Binding Assay
Microplates were coated with recombinant human integrin αvβ6 (2 ug/ml) in PBS (100 ul/well 25° C., overnight). The coating solution was removed, washed with wash buffer (0.05% Tween 20; 0.5 mM MnCl2; in 1×TBS). Plate was blocked with 200 ul/well of Block Buffer (1% BSA; 5% sucrose; 0.5 mM MnCl2; in 1×TBS) at 37° C. for 2 h. Dilutions of testing compounds and recombinant TGFβ1 LAP (0.67 ug/ml) in binding buffer (0.05% BSA; 2.5% sucrose; 0.5 mM MnCl2; in 1×TBS) were added. The plate was incubated for 2 hours at 25° C., washed, and incubated for 1 hour with Biotin-Anti-hLAP. Bound antibody was detected by peroxidase-conjugated streptavidin. The IC50 values for testing compounds were calculated by a four-parameter logistic regression.
The compounds tested were compound samples prepared according to procedures described in the Synthetic Examples section, with the stereochemical purity as indicated in the Examples indicated.

Chain of recombinant human integrin αvβ6 (P06756 31-992): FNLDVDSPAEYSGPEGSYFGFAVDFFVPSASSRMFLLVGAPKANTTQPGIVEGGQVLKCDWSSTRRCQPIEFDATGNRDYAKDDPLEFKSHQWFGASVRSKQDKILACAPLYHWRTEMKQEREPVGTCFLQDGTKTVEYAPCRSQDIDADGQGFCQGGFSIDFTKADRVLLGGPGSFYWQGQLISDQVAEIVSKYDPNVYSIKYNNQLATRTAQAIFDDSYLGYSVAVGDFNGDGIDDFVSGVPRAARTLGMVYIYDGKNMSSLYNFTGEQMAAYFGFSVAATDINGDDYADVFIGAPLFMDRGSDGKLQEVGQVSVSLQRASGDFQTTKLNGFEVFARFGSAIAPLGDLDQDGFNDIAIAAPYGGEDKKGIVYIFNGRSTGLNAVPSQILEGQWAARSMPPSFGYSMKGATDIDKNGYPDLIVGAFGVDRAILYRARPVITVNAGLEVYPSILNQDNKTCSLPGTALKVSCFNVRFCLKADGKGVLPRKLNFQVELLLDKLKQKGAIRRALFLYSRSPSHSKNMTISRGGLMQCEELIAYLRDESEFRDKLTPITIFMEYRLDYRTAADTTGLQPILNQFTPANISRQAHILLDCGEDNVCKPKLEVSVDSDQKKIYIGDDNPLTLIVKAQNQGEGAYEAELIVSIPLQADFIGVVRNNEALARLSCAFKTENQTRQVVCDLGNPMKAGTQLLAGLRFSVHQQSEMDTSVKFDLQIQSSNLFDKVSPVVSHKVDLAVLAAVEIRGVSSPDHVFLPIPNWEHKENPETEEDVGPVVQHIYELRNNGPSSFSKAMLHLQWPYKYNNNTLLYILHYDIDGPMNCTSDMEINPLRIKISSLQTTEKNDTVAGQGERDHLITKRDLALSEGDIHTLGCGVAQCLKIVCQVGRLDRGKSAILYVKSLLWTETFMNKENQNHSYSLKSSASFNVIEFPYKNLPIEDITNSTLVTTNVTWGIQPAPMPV
Chain of recombinant human integrin αvβ6 (P18564 22-707): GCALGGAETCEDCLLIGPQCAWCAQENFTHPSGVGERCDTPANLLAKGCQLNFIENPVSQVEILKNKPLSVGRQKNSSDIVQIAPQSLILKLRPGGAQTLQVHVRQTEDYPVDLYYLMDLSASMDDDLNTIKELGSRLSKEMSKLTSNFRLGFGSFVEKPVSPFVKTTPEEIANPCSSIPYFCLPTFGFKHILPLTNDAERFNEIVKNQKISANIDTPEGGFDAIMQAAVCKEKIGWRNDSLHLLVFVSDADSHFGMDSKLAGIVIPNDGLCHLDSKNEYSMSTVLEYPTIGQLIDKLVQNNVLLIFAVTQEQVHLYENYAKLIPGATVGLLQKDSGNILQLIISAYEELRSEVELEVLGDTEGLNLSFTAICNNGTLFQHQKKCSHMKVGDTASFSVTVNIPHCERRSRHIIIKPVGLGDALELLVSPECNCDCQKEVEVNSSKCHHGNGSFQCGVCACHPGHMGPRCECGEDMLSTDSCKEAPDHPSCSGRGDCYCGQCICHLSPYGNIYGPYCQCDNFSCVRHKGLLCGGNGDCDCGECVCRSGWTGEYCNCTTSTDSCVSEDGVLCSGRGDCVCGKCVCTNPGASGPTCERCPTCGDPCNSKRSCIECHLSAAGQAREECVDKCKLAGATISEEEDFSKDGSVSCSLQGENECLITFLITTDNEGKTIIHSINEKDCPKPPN

Row | Structure (SMILES) | IC50
1 | O=C(O)[C@H](CCN1CC[C@@H](CCc2ccc3c(n2)NCCC3)C1)NC(=O)[C@@H]1CCCN1Cc1ncccn1 [Compound 90] | < 50 nM
2 | O=C(O)[C@H](CCN1CC[C@@H](CCc2ccc3c(n2)NCCC3)C1)NC(=O)[C@@H]1CCCN1CC1CC1 [Compound 91] | 50 to 250 nM
3 | O=C(O)[C@H](CCN1CC[C@@H](CCc2ccc3c(n2)NCCC3)C1)NC(=O)[C@@H]1CCCN1CC1CCC1 [Compound 92] | < 50 nM
4 | CCC(CC)C(=O)N[C@@H](CCN1CCC[C@@](F)(CCc2ccc3c(n2)NCCC3)C1)C(=O)O [Compound 94] | 50 to 250 nM
5 | O=C(N[C@@H](CCN1CCC[C@@](F)(CCc2ccc3c(n2)NCCC3)C1)C(=O)O)c1cccc(N2CCOCC2)c1 [Compound 96] | 50 to 250 nM
6 | O=C(N[C@@H](CCN1CCC[C@@](F)(CCc2ccc3c(n2)NCCC3)C1)C(=O)O)c1cc(F)cc(F)c1 [Compound 97] | 50 to 250 nM
7 | O=C(N[C@@H](CCN1CCC[C@@](F)(CCc2ccc3c(n2)NCCC3)C1)C(=O)O)c1c(Cl)cccc1Cl [Compound 101] | 250 to 1000 nM
8 | O=C(N[C@@H](CCN1CCC[C@](F)(CCc2ccc3c(n2)NCCC3)C1)C(=O)O)c1cccc(F)c1Cl [Compound 103] | < 50 nM
9 | O=C(N[C@@H](CCN1CCC[C@](F)(CCc2ccc3c(n2)NCCC3)C1)C(=O)O)c1cc(F)cc(F)c1 [Compound 104] | < 50 nM
10 | O=C(N[C@@H](CCN1CCC[C@@](F)(CCc2ccc3c(n2)NCCC3)C1)C(=O)O)c1cc(F)cc(C(F)(F)F)c1 [Compound 105] | 50 to 250 nM
11 | Cn1ncc2ccc(C(=O)N[C@@H](CCN3CCC[C@@](F)(CCc4ccc5c(n4)NCCC5)C3)C(=O)O)cc21 [Compound 106] | 50 to 250 nM
12 | O=C(N[C@@H](CCN1CCC[C@@](F)(CCc2ccc3c(n2)NCCC3)C1)C(=O)O)C1CCC(F)(F)CC1 [Compound 107] | 50 to 250 nM
13 | CCC(CC)C(=O)N[C@@H](CCN1CCC[C@](F)(CCc2ccc3c(n2)NCCC3)C1)C(=O)O [Compound 108] | 250 to 1000 nM
14 | O=C(N[C@@H](CCN1CCC[C@](F)(CCc2ccc3c(n2)NCCC3)C1)C(=O)O)C1CCC(F)(F)CC1 [Compound 109] | 50 to 250 nM
15 | Cn1ncc2ccc(C(=O)N[C@@H](CCN3CCC[C@](F)(CCc4ccc5c(n4)NCCC5)C3)C(=O)O)cc21 [Compound 110] | < 50 nM
16 | CC(C)(C)OC(=O)N[C@@H](CCN1CC[C@@H](OCc2ccc3c(n2)NCCC3)C1)C(=O)O [Compound 111] | > 1000 nM
17 | O=C(N[C@@H](CCN1CC[C@@H](OCCc2ccc3c(n2)NCCC3)C1)C(=O)O)C1CCOCC1 [Compound 117] | 250 to 1000 nM
18 | CC(C)(C(=O)N[C@@H](CCN1CC[C@@H](OCCc2ccc3c(n2)NCCC3)C1)C(=O)O)c1cccnc1 [Compound 122] | 250 to 1000 nM
19 | O=C(N[C@@H](CCN1CC(OCCc2ccc3c(n2)NCCC3)C1)C(=O)O)C1CCOCC1 [Compound 124] | 50 to 250 nM
20 | CC(C)(C(=O)N[C@@H](CCN1CC(OCCc2ccc3c(n2)NCCC3)C1)C(=O)O)c1cccnc1 [Compound 128] | 250 to 1000 nM
21 | O=C(N[C@@H](CCN1CC(OCCc2ccc3c(n2)NCCC3)C1)C(=O)O)[C@@H]1CCN(c2ccccn2)C1 [Compound 131] | 50 to 250 nM
22 | O=C(N[C@@H](CCN1CC(OCCc2ccc3c(n2)NCCC3)C1)C(=O)O)[C@H]1CCN(c2ccccn2)C1 [Compound 132] | 50 to 250 nM
23 | CC(C)(O)CC1NCCC1C(=O)N[C@@H](CCN1CC(OCCc2ccc3c(n2)NCCC3)C1)C(=O)O (stereo partly drawn) [Compound 134] | 250 to 1000 nM

Second part, the molecule after the results:

Row | IC50 | Structure (SMILES)
24 | < 50 nM | O=C(N[C@H](CCN1CC[C@@H](CCc2ccc3c(n2)NCCC3)C1)C(=O)O)c1cccc(-c2ncco2)c1 [Compound 88]
25 | < 50 nM | O=C(O)[C@H](CCN1CC[C@@H](CCc2ccc3c(n2)NCCC3)C1)NC(=O)[C@@H]1COCCN1Cc1ccccc1 [Compound 89]
26 | 50 to 250 nM | O=C(O)[C@H](CCN1CC[C@@H](CCc2ccc3c(n2)NCCC3)C1)NC(=O)[C@@H]1CCCCN1Cc1ccccc1 [Compound 93]
27 | < 50 nM | CCC(CC)C(=O)N[C@@H](CCN1CC[C@@H](CCc2ccc3c(n2)NCCC3)C1)C(=O)O [Compound 95]
28 | 250 to 1000 nM | Cc1nn(C)cc1-c1nn(C)c2c(C(=O)N[C@@H](CCN3CC[C@@H](CCc4ccc5c(n4)NCCC5)C3)C(=O)O)cccc12 [Compound 98]
29 | < 50 nM | O=C(O)[C@H](CCN1CC[C@@H](CCc2ccc3c(n2)NCCC3)C1)NC(=O)[C@@H]1CCCN1Cc1cccnc1 [Compound 99]
30 | 50 to 250 nM | COCCOc1cccc(C(=O)N[C@@H](CCN2CCC[C@@](F)(CCc3ccc4c(n3)NCCC4)C2)C(=O)O)c1 [Compound 100]
31 | 250 to 1000 nM | Cn1cc(-c2nn(C)c3c(C(=O)N[C@@H](CCN4CC[C@@H](CCc5ccc6c(n5)NCCC6)C4)C(=O)O)cccc23)cn1 [Compound 102]
32 | > 1000 nM | O=C(N[C@@H](CCN1CC[C@@H](OCc2ccc3c(n2)NCCC3)C1)C(=O)O)c1ccccc1 [Compound 112]
33 | > 1000 nM | Cc1cc(C)n(-c2cccc(C(=O)N[C@@H](CCN3CC[C@@H](OCc4ccc5c(n4)NCCC5)C3)C(=O)O)c2)n1 [Compound 113]
34 | 250 to 1000 nM | O=C(N[C@@H](CCN1CC[C@@H](OCCc2ccc3c(n2)NCCC3)C1)C(=O)O)c1c(Cl)cccc1Cl [Compound 114]
35 | < 50 nM | O=C(N[C@@H](CCN1CC(OCCc2ccc3c(n2)NCCC3)C1)C(=O)O)c1c(Cl)cccc1Cl [Compound 115]
36 | > 1000 nM | CC(=O)N1CCN(CC[C@H](NC(=O)c2ccccc2)C(=O)O)C[C@@H]1CCc1ccc2c(n1)NCCC2 [Compound 116]
37 | 250 to 1000 nM | CC(C)(C(=O)N[C@@H](CCN1CC[C@@H](OCCc2ccc3c(n2)NCCC3)C1)C(=O)O)c1ccccc1 [Compound 118]
38 | 250 to 1000 nM | CC(C)(Cc1ccccc1)C(=O)N[C@@H](CCN1CC[C@@H](OCCc2ccc3c(n2)NCCC3)C1)C(=O)O [Compound 119]
39 | 50 to 250 nM | CC(C)(C(=O)N[C@@H](CCN1CC(OCCc2ccc3c(n2)NCCC3)C1)C(=O)O)c1ccccc1 [Compound 120]
40 | 250 to 1000 nM | O=C(O)[C@H](CCN1CC[C@@H](OCCc2ccc3c(n2)NCCC3)C1)NC(=O)[C@@H]1CCCN1Cc1ccccc1 [Compound 121]
41 | < 50 nM | O=C(O)[C@H](CCN1CC(OCCc2ccc3c(n2)NCCC3)C1)NC(=O)[C@@H]1CCCN1Cc1ccccc1 [Compound 123]
42 | 250 to 1000 nM | O=C(N[C@@H](CCN1CC[C@@H](OCCc2ccc3c(n2)NCCC3)C1)C(=O)O)[C@@H]1CCN(c2ccccn2)C1 [Compound 125]
43 | > 1000 nM | O=C(N[C@@H](CCN1CC[C@@H](OCCc2ccc3c(n2)NCCC3)C1)C(=O)O)[C@H]1CCN(c2ccccn2)C1 [Compound 126]
44 | < 50 nM | O=C(O)[C@H](CCN1CC(OCCc2ccc3c(n2)NCCC3)C1)NC(=O)[C@@H]1CCCN1c1ccccc1 [Compound 127]
45 | 250 to 1000 nM | O=C(O)[C@H](CCN1CC(CCc2ccc3c(n2)NCCC3)C1)NC(=O)[C@@H]1CCCN1c1ccccc1 [Compound 129]
46 | 250 to 1000 nM | CC(C)(Cc1ccccc1)C(=O)N[C@@H](CCN1CC(OCCc2ccc3c(n2)NCCC3)C1)C(=O)O [Compound 130]
47 | 250 to 1000 nM | O=C(O)[C@H](CCN1CC[C@@H](OCCc2ccc3c(n2)NCCC3)C1)NC(=O)[C@@H]1CCCN1c1ccccc1 [Compound 133]
48 | > 1000 nM | O=C(N[C@@H](CCN1CC(CCc2ccc3c(n2)NCCC3)C1)C(=O)O)C1CCCN1Cc1ccccc1 (stereo partly drawn) [Compound 135]
